# Measured values taken from ChEMBL document CHEMBL3045481, “Insecticide-induced resurgence of the whitebacked planthopper Sogatella furcifera (Horvath) (Hemiptera: Delphacidae) on rice varieties with different levels of resistance” (Crop Prot, 2011).
# Key:
# Oryza sativa [1] = assay: Effect on total phenols level in Sogatella furcifera-sensitive Oryza sativa (rice) plant ARC6248 leaf blade measured per gram of dry weight at 0.030% concentration (reference value: 17.08 mg/g dry wt); assay type: ADME, organism-based; settings: in vivo
# Oryza sativa [2] = assay: Effect on total sugar level in Sogatella furcifera-resistanct Oryza sativa (rice) plant PR116 leaf sheath measured per gram of dry weight at 0.030% concentration (reference value: 30.27 mg/g dry wt); assay type: ADME, organism-based; settings: in vivo
# Oryza sativa [3] = assay: Effect on total amino acids level in Sogatella furcifera-sensitive Oryza sativa (rice) plant ARC6248 leaf blade measured per gram of dry weight at 0.030% concentration (reference value: 3.54 mg/g fresh wt); assay type: ADME, organism-based; settings: in vivo
# Sogatella furcifera [4] = assay: Insecticidal activity against Sogatella furcifera on insect-resistanct rice plant PR116 assessed as nymphal survival at 0.030% concentration (reference value: 70.28%); assay type: functional
# Sogatella furcifera [5] = assay: Insecticidal activity against Sogatella furcifera on insect-resistanct rice plant PR116 assessed as resurgence ratio at 0.030% concentration; assay type: functional
# Oryza sativa [6] = assay: Effect on total phenols level in Sogatella furcifera-resistanct Oryza sativa (rice) plant PR116 leaf sheath measured per gram of dry weight at 0.030% concentration (reference value: 5.75 mg/g dry wt); assay type: ADME, organism-based; settings: in vivo
# Oryza sativa [7] = assay: Effect on total protein level in Sogatella furcifera-resistanct Oryza sativa (rice) plant PR116 leaf blade measured per gram of dry weight at 0.030% concentration (reference value: 21.67 mg/g fresh wt); assay type: ADME, organism-based; settings: in vivo
# Oryza sativa [8] = assay: Effect on total protein level in Sogatella furcifera-sensitive Oryza sativa (rice) plant ARC6248 leaf blade measured per gram of dry weight at 0.030% concentration (reference value: 17.67 mg/g […]); assay type: ADME, organism-based; settings: in vivo
# Oryza sativa [9] = assay: Effect on reducing sugar level in Sogatella furcifera-sensitive Oryza sativa (rice) plant ARC6248 leaf blade measured per gram of dry weight at 0.030% concentration (reference value: 8.37 mg/g dry wt); assay type: ADME, organism-based; settings: in vivo
# Oryza sativa [10] = assay: Effect on reducing sugar level in Sogatella furcifera-sensitive Oryza sativa (rice) plant ARC6248 leaf sheath measured per gram of dry weight at 0.030% concentration (reference value: 6.41 mg/g dry wt); assay type: ADME, organism-based; settings: in vivo
# Oryza sativa [11] = assay: Effect on total phenols level in Sogatella furcifera-resistanct Oryza sativa (rice) plant PR116 leaf blade measured per gram of dry weight at 0.030% concentration (reference value: 8.08 mg/g dry wt); assay type: ADME, organism-based; settings: in vivo
# Oryza sativa [12] = assay: Effect on total protein level in Sogatella furcifera-sensitive Oryza sativa (rice) plant ARC6248 leaf sheath measured per gram of dry weight at 0.030% concentration (reference value: 6.11 mg/g […]); assay type: ADME, organism-based; settings: in vivo
# Oryza sativa [13] = assay: Effect on total phenols level in Sogatella furcifera-sensitive Oryza sativa (rice) plant ARC6248 leaf sheath measured per gram of dry weight at 0.030% concentration (reference value: 12.75 mg/g dry wt); assay type: ADME, organism-based; settings: in vivo
# Oryza sativa [14] = assay: Effect on total sugar level in Sogatella furcifera-sensitive Oryza sativa (rice) plant ARC6248 leaf blade measured per gram of dry weight at 0.030% concentration (reference value: 34.05 mg/g dry wt); assay type: ADME, organism-based; settings: in vivo
# Oryza sativa [15] = assay: Effect on total amino acids level in Sogatella furcifera-resistanct Oryza sativa (rice) plant PR116 leaf blade measured per gram of dry weight at 0.030% concentration (reference value: 3.91 mg/g […]); assay type: ADME, organism-based; settings: in vivo
# Sogatella furcifera [16] = assay: Insecticidal activity against Sogatella furcifera on insect-resistanct rice plant PR116 assessed as nymphal duration at 0.030% concentration (reference value: 11.75 days); assay type: functional
# Oryza sativa [17] = assay: Effect on reducing sugar level in Sogatella furcifera-resistanct Oryza sativa (rice) plant PR116 leaf blade measured per gram of dry weight at 0.030% concentration (reference value: 9.35 mg/g dry wt); assay type: ADME, organism-based; settings: in vivo
# Oryza sativa [18] = assay: Effect on total amino acids level in Sogatella furcifera-resistanct Oryza sativa (rice) plant PR116 leaf sheath measured per gram of dry weight at 0.030% concentration (reference value: 2.58 mg/g […]); assay type: ADME, organism-based; settings: in vivo
# Oryza sativa [19] = assay: Effect on total sugar level in Sogatella furcifera-sensitive Oryza sativa (rice) plant ARC6248 leaf sheath measured per gram of dry weight at 0.030% concentration (reference value: 25.98 mg/g dry wt); assay type: ADME, organism-based; settings: in vivo
# Sogatella furcifera [20] = assay: Insecticidal activity against Sogatella furcifera on insect-resistanct rice plant PR116 assessed as growth index at 0.030% concentration (reference value: 6.02%); assay type: functional
# Oryza sativa [21] = assay: Effect on reducing sugar level in Sogatella furcifera-resistanct Oryza sativa (rice) plant PR116 leaf sheath measured per gram of dry weight at 0.030% concentration (reference value: 7.50 mg/g dry wt); assay type: ADME, organism-based; settings: in vivo
# Sogatella furcifera [22] = assay: Insecticidal activity against Sogatella furcifera on insect-sensitive rice plant ARC6248 assessed as nymphal duration at 0.030% concentration (reference value: 14.48 days); assay type: functional
# Sogatella furcifera [23] = assay: Insecticidal activity against Sogatella furcifera on insect-sensitive rice plant ARC6248 assessed as nymphal survival at 0.030% concentration (reference value: 34.17%); assay type: functional
# Oryza sativa [24] = assay: Effect on total protein level in Sogatella furcifera-resistanct Oryza sativa (rice) plant PR116 leaf sheath measured per gram of dry weight at 0.030% concentration (reference value: 7.06 mg/g fresh wt); assay type: ADME, organism-based; settings: in vivo
# Sogatella furcifera [25] = assay: Insecticidal activity against Sogatella furcifera on insect-sensitive rice plant ARC6248 assessed as resurgence ratio at 0.030% concentration; assay type: functional
# Oryza sativa [26] = assay: Effect on total sugar level in Sogatella furcifera-resistanct Oryza sativa (rice) plant PR116 leaf blade measured per gram of dry weight at 0.030% concentration (reference value: 36.16 mg/g dry wt); assay type: ADME, organism-based; settings: in vivo
# Sogatella furcifera [27] = assay: Insecticidal activity against Sogatella furcifera on insect-sensitive rice plant ARC6248 assessed as growth index at 0.030% concentration (reference value: 2.38%); assay type: functional
# Oryza sativa [28] = assay: Effect on total amino acids level in Sogatella furcifera-sensitive Oryza sativa (rice) plant ARC6248 leaf sheath measured per gram of dry weight at 0.030% concentration (reference value: 2.11 mg/g fresh wt); assay type: ADME, organism-based; settings: in vivo
smiles,measurement,setting,value
COP(=S)(OC)Oc1ccc([N+](=O)[O-])cc1 [METHYL PARATHIONE],Activity,Oryza sativa [1],16.08 mg
same,Activity,Oryza sativa [2],33.48 mg
same,Activity,Oryza sativa [3],4.04 mg
same,Survival,Sogatella furcifera [4],77.78%
same,Ratio,Sogatella furcifera [5],1.69
same,Activity,Oryza sativa [6],5.58 mg
same,Activity,Oryza sativa [7],23.33 mg
same,Activity,Oryza sativa [8],21.17 mg
same,Activity,Oryza sativa [9],10.54 mg
same,Activity,Oryza sativa [10],9.89 mg
same,Activity,Oryza sativa [11],7.5 mg
same,Activity,Oryza sativa [12],8.33 mg
same,Activity,Oryza sativa [13],11.08 mg
same,Activity,Oryza sativa [14],39.37 mg
same,Activity,Oryza sativa [15],4.53 mg
same,Time,Sogatella furcifera [16],11.57 days
same,Activity,Oryza sativa [17],14.89 mg
same,Activity,Oryza sativa [18],3.64 mg
same,Activity,Oryza sativa [19],33.21 mg
same,growth inhibition (GI),Sogatella furcifera [20],6.76%
same,Activity,Oryza sativa [21],11.63 mg
same,Time,Sogatella furcifera [22],14.35 days
same,Survival,Sogatella furcifera [23],40.83%
same,Activity,Oryza sativa [24],8.67 mg
same,Ratio,Sogatella furcifera [25],1.26
same,Activity,Oryza sativa [26],38.3 mg
same,growth inhibition (GI),Sogatella furcifera [27],2.87%
same,Activity,Oryza sativa [28],2.86 mg
